# Assay results published in patent publication US6387947B1, “Antimicrobial cosmetic compositions” (E-L Management Corp., priority 1997, dated 2002).
# Tests used:
# Yeast [1] = assay: microbial challenge of nonionic oil-in-water emulsion, pool 4; assay type: cell-based; details: for concentration of microbes: 0.375% in emulsion
# Method: (§1) A nonionic oil-in-water emulsion is prepared containing 0.473% 3-furan carboxylic acid. The formulation is divided into five portions, each one getting an inoculation at day 0, and a reinoculation after three weeks, of one of the following microbial cultures: (1)Enterics; (2) Pseudomonas; (3)Staphylococcus; (4)Yeast; and (5)Mold. The concentration of microbes in each individual formulation is calculated on the day of the inoculation, and then again calculated on day 2, and at the end of one, two, three (pre-reinoculation) and four weeks, at a variety of pH values. These are also compared with formulations containing 2-furan carboxylic acid and an identical series of microbes, and an acid pH control emulsion without a furan carboxylic acid added. All numbers, other than those listed as “<10”, are log base 10; thus, for example, “6.6” is equivalent to the presence of […] bacteria. Entries of <10 indicate less than 10 colony forming units, the lowest level of detection.
# Yeast [2] = assay: as above; assay type: cell-based; details: 0.375% in emulsion
# [3] = tested on: PLA2 enzyme obtained from snake venom; details: assay concentrations 0.01, 0.1 and 1 mg/ml
# Method: The enzyme reaction is accomplished in a cuvette containing […] of phosphate buffered saline. Fluorometric substrate NBD-C6-HPC is solubilized 1 mM in EtOH, and is diluted in the reaction mixture to yield a 10 μM final concentration. The assay is initiated with the addition of 0.001 units per μl of PLA2 enzyme obtained from snake venom. Enzyme activity is monitored either with or without the presence of potential inhibitors. […] Prior to enzyme addition, samples are measured fluorometrically at excitation 470 and emission 570 to determine background level of fluorescensce. Following enzyme addition, samples are monitored every 15 minutes over a 60 minute period.
# Enterics [4] = assay: microbial challenge of nonionic oil-in-water emulsion, pool 1; assay type: cell-based; details: 0.375% in emulsion
# [5] = tested on: lymphocyte adhesion to endothelial cells; assay: inhibition of lymphocyte adhesion to endothelial cells; assay type: cell-based, human
# Method: Endothelial cells are grown to confluence and washed thoroughly with basal media prior to the experiment to remove all fetal calf serum. The test compounds are then added to the endothelial culture well and incubated for 2 hours. IL-1β is added to stimulated expression of adhesion molecules on the endothelial cells before lymphocytes are added. Lymphocytes are isolated from blood collected from adult human subjects and added to the endothelial culture wells. PHA is added to stimulate adhesion molecule expression in the lymphocytes and the cultures incubated overnight. After a brief washing procedure, cells are incubated with Rose Bengal, and the number of adherent cells assessed by measuring the absorbance at 570 nm.
# Staphylococcus = assay: microbial challenge of nonionic oil-in-water emulsion, pool 3; assay type: cell-based; details: for concentration of microbes: 0.375% in emulsion
# Method: The formulation is divided into five portions, each one getting an inoculation at day 0, and a reinoculation after three weeks, of one of the following microbial cultures: (1)Enterics; (2) Pseudomonas; (3)Staphylococcus; (4)Yeast; and (5)Mold. The concentration of microbes in each individual formulation is calculated on the day of the inoculation, and then again calculated on day 2, and at the end of one, two, three (pre-reinoculation) and four weeks, at a variety of pH values. These are also compared with formulations containing 2-furan carboxylic acid and an identical series of microbes, and an acid pH control emulsion without a furan carboxylic acid added. All numbers, other than those listed as “<10”, are log base 10; thus, for example, “6.6” is equivalent to the presence of […] bacteria. Entries of <10 indicate less than 10 colony forming units, the lowest level of detection.
# Enterics [6] = assay: microbial challenge of nonionic oil-in-water emulsion, pool 1; assay type: cell-based
# Method: as §1
# Mold = assay: microbial challenge of nonionic oil-in-water emulsion, pool 5; assay type: cell-based; details: for concentration of microbes: 0.375% in emulsion
# Method: as §1
# mycobacteria = details: U.S. Pat. No. 5,387,605; cited from earlier work
# [7] = antiirritant effect against Balsam of Peru on ventral forearms of volunteers; assay type: in vivo, human; details: 0.1% in hydroalcohol 1:1, applied twenty minutes before Balsam of Peru; Minolta Chromameter; seven volunteers
# Method: Seven volunteers with a history of skin sensitivity to Balsam of Peru are chosen for the study.
# The test compounds are applied to the ventral forearms of panelists. The material is allowed to absorb for twenty minutes and then Balsam of Peru, an irritant is applied on the test sites. Skin irritation is measured in terms of increase in skin redness. The degree of redness is measured with a Minolta Chromameter and compared with the controls, the positive control being skin treated with Balsam of Peru alone, and the negative control being a skin site treated with 10% cola solution(a known antiirritant), and challenged like the test products.
# Pseudomonas [8] = assay: microbial challenge of nonionic oil-in-water emulsion, pool 2; assay type: cell-based
# Method: as §1
# Pseudomonas [9] = assay: as above; assay type: cell-based; details: 0.375% in emulsion
smiles,measurement,setting,value
O=C(O)c1ccco1 [2-furan carboxylic acid],"antimicrobial activity against yeast, in words",Yeast [1],very poor level of activity
same,concentration of microbes,"Yeast [1]; pH 3.0, Day 0",5.7 log base 10
same,concentration of microbes,"Yeast [1]; pH 3.0, Day 2",<10 colony forming units
same,concentration of microbes,"Yeast [1]; pH 3.0, Week 1",<10 colony forming units
same,concentration of microbes,"Yeast [1]; pH 3.0, Week 3",<10 colony forming units
same,concentration of microbes,"Yeast [1]; pH 3.0, Week 4",<10 colony forming units
same,concentration of microbes,"Yeast [1]; pH 4.0, Day 0",5.7 log base 10
same,concentration of microbes,"Yeast [1]; pH 4.0, Day 2",3.7 log base 10
same,concentration of microbes,"Yeast [1]; pH 4.0, Week 2",<10 colony forming units
same,concentration of microbes,"Yeast [1]; pH 4.0, Week 3",<10 colony forming units
same,concentration of microbes,"Yeast [1]; pH 4.0, Week 4",>5.7 log base 10
same,concentration of microbes,"Yeast [1]; pH 5.0, Day 0",5.7 log base 10
same,concentration of microbes,"Yeast [1]; pH 5.0, Day 2",>5.7 log base 10
same,concentration of microbes,"Yeast [1]; pH 5.0, Week 1",>5.7 log base 10
same,concentration of microbes,"Yeast [1]; pH 5.0, Week 4",>5.7 log base 10
same,concentration of microbes,"Yeast [2]; pH 3.0, Week 2",<10 colony forming units
same,concentration of microbes,"Yeast [2]; pH 4.0, Week 1",3.7 log base 10
same,concentration of microbes,"Yeast [2]; pH 5.0, Week 2",>5.7 log base 10
same,concentration of microbes,"Yeast [2]; pH 5.0, Week 3",>5.7 log base 10
same,"PLA2 inhibition, in words",[3],capable of inhibiting the activity
same,EC-50 of PLA2 inhibition,[3]; calculated from linear fit,0.5 mg/mL
same,concentration of microbes,"Enterics [4]; pH 3.0, Day 0",6.6 log base 10
same,concentration of microbes,"Enterics [4]; pH 3.0, Week 1",<10 colony forming units
same,concentration of microbes,"Enterics [4]; pH 3.0, Week 2",<10 colony forming units
same,concentration of microbes,"Enterics [4]; pH 3.0, Week 3",<10 colony forming units
same,concentration of microbes,"Enterics [4]; pH 3.0, Week 4",<10 colony forming units
same,concentration of microbes,"Enterics [4]; pH 4.0, Day 0",6.6 log base 10
same,concentration of microbes,"Enterics [4]; pH 4.0, Week 1",<10 colony forming units
same,concentration of microbes,"Enterics [4]; pH 4.0, Week 4",<10 colony forming units
same,concentration of microbes,"Enterics [4]; pH 5.0, Day 0",6.6 log base 10
same,concentration of microbes,"Enterics [4]; pH 5.0, Day 2",>6 log base 10
same,concentration of microbes,"Enterics [4]; pH 5.0, Week 1",>6 log base 10
same,concentration of microbes,"Enterics [4]; pH 5.0, Week 3",<10 colony forming units
same,concentration of microbes,"Enterics [4]; pH 5.0, Week 4",<10 colony forming units
same,"inhibition of adhesion of polymorphonuclear leukocytes (PMNs) to activated endothelial cells, in words",[5],ability to inhibit the adhesion
same,"inhibition of lymphocyte adhesion, in words (absorbance at 570 nm, Rose Bengal)","[5]; concentrations of 0.5% and 1%, IL-1β and PHA stimulated",very potent inhibitors of lymphocyte adhesion
same,"antimicrobial activity against Staphylococcus, in words",Staphylococcus,does exhibit inhibition
same,concentration of microbes,"Staphylococcus; pH 3.0, Day 0",6.3 log base 10
same,concentration of microbes,"Staphylococcus; pH 3.0, Day 2",<10 colony forming units
same,concentration of microbes,"Staphylococcus; pH 3.0, Week 1",<10 colony forming units
same,concentration of microbes,"Staphylococcus; pH 3.0, Week 2",<10 colony forming units
same,concentration of microbes,"Staphylococcus; pH 3.0, Week 3",<10 colony forming units
same,concentration of microbes,"Staphylococcus; pH 3.0, Week 4",<10 colony forming units
same,concentration of microbes,"Staphylococcus; pH 4.0, Day 0",6.3 log base 10
same,concentration of microbes,"Staphylococcus; pH 4.0, Day 2",<10 colony forming units
same,concentration of microbes,"Staphylococcus; pH 4.0, Week 1",<10 colony forming units
same,concentration of microbes,"Staphylococcus; pH 4.0, Week 2",<10 colony forming units
same,concentration of microbes,"Staphylococcus; pH 4.0, Week 3",<10 colony forming units
same,concentration of microbes,"Staphylococcus; pH 4.0, Week 4",<10 colony forming units
same,concentration of microbes,"Staphylococcus; pH 5.0, Day 0",6.3 log base 10
same,concentration of microbes,"Staphylococcus; pH 5.0, Day 2",2.9 log base 10
same,concentration of microbes,"Staphylococcus; pH 5.0, Week 1",<10 colony forming units
same,concentration of microbes,"Staphylococcus; pH 5.0, Week 2",<10 colony forming units
same,concentration of microbes,"Staphylococcus; pH 5.0, Week 3",<10 colony forming units
same,concentration of microbes,"Staphylococcus; pH 5.0, Week 4",<10 colony forming units
same,"antimicrobial activity against Enterics, in words",Enterics [6],does exhibit inhibition
same,"antimicrobial activity against Mold, in words",Mold,very poor level of activity
same,concentration of microbes,"Mold; pH 3.0, Day 0",5.2 log base 10
same,concentration of microbes,"Mold; pH 3.0, Day 2",<10 colony forming units
same,concentration of microbes,"Mold; pH 3.0, Week 1",<10 colony forming units
same,concentration of microbes,"Mold; pH 3.0, Week 2",<10 colony forming units
same,concentration of microbes,"Mold; pH 3.0, Week 3",<10 colony forming units
same,concentration of microbes,"Mold; pH 3.0, Week 4",<10 colony forming units
same,concentration of microbes,"Mold; pH 4.0, Day 0",5.2 log base 10
same,concentration of microbes,"Mold; pH 4.0, Day 2",1.6 log base 10
same,concentration of microbes,"Mold; pH 4.0, Week 1",<10 colony forming units
same,concentration of microbes,"Mold; pH 4.0, Week 2",<10 colony forming units
same,concentration of microbes,"Mold; pH 4.0, Week 3",<10 colony forming units
same,concentration of microbes,"Mold; pH 4.0, Week 4",<10 colony forming units
same,concentration of microbes,"Mold; pH 5.0, Day 0",5.2 log base 10
same,concentration of microbes,"Mold; pH 5.0, Day 2",5.2 log base 10
same,concentration of microbes,"Mold; pH 5.0, Week 1",5.2 log base 10
same,concentration of microbes,"Mold; pH 5.0, Week 2",5.2 log base 10
same,concentration of microbes,"Mold; pH 5.0, Week 3",3.0 log base 10
same,concentration of microbes,"Mold; pH 5.0, Week 4",>5 log base 10
same,"antimicrobial activity against mycobacteria, in words",mycobacteria,particularly effective
same,effectiveness in preventing the onset of irritation (reduction of skin redness),[7],49%
same,"antimicrobial activity against Pseudomonas, in words",Pseudomonas [8],does exhibit inhibition
same,concentration of microbes,"Pseudomonas [9]; pH 3.0, Week 1",<10 colony forming units
same,concentration of microbes,"Pseudomonas [9]; pH 3.0, Week 3",<10 colony forming units
same,concentration of microbes,"Pseudomonas [9]; pH 3.0, Week 4",<10 colony forming units
same,concentration of microbes,"Pseudomonas [9]; pH 4.0, Day 2",<10 colony forming units
same,concentration of microbes,"Pseudomonas [9]; pH 4.0, Week 3",<10 colony forming units
same,concentration of microbes,"Pseudomonas [9]; pH 4.0, Week 4",<10 colony forming units
same,concentration of microbes,"Pseudomonas [9]; pH 5.0, Day 2",>6 log base 10
same,concentration of microbes,"Pseudomonas [9]; pH 5.0, Week 2",<10 colony forming units
same,concentration of microbes,"Pseudomonas [9]; pH 5.0, Week 3",<10 colony forming units
